Source: article PMC5879128, “Combined in Vitro and in Silico Studies for the Anticholinesterase Activity and Pharmacokinetics of Coumarinyl Thiazoles and Oxadiazoles” (Frontiers in Chemistry, 2018)
Like-named read-outs stand apart in the source and are kept apart here.

Assays:
AChE = biological target: T1, AChE (Electrophorus electricus, UniProt O42275); assay: biochemical; assay type: biochemical; details: for IC50: electric eel AChE, Ellman's method, SEM of three experiments; for Selectivity for AChE: ratio of IC50 values, BuChE over AChE; for fold stronger AChE inhibition than the standard neostigmine: relative to neostigmine
T1 construct: electric eel, and horse serum were used as source of AChE and BuChE, respectively; from tissue; host or cells: electric eel
T1 sequence (O42275 24-633): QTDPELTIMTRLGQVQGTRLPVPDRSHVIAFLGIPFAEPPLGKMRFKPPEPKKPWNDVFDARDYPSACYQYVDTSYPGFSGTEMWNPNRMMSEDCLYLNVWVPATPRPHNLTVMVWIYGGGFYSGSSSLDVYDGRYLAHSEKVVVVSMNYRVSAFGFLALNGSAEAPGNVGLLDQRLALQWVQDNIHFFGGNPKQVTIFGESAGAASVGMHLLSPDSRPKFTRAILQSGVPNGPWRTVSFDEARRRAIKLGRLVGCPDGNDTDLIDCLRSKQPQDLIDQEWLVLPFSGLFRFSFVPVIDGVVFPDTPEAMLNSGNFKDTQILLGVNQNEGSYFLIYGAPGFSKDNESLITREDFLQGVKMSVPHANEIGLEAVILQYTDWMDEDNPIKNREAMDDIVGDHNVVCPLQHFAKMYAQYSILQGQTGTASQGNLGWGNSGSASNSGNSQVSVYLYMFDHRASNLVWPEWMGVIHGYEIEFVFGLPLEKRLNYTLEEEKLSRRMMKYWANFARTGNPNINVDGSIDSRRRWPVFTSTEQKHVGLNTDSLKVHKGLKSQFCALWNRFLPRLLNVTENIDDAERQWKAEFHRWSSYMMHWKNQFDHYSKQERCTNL
Description: (§1) The target compounds, coumarinyl thiazoles 6(a–o) and coumarinyl oxadiazoles 11(a–h), were screened for their inhibitory activity against AChE and BuChE by Ellman's method.
(§2) For the determination of cholinesterase inhibition, electric eel, and horse serum were used as source of AChE and BuChE, respectively. […] The compounds with 1 Mm concentration were prepared in DMSO. Assay was carried out in 96 well-plate in triplicates. The reaction mixture comprised of 20 μL of buffer (tris HCl 50 mM, 0.02 M MgCl2.6H2O, 0.1 mM NaCl) at pH 8, 10 μL of the test compound, 10 μL enzyme acetylcholine or butyrylcholinesterase of 0.03 U/mL (500 U of AChE and 700 U/mg of BuChE). The contents were incubated for 10 min at 25°C followed by the addition of 1 mM of 10 μL of substrate […] for AChE and butyrylthiocholine iodide for BuChE and incubated again at 25°C for 15 min. A 50 μL of 3 mM DTNB as a coloring agent was added and incubated at 25°C for further 10 min. […] The enzyme dilutions were made by using buffer of pH 8 (tris base 50 mM and having 0.1% BSA).

BuChE = biological target: T2, BuChE (Equus caballus, UniProt P81908); assay: biochemical; assay type: biochemical; details: for Selectivity for BuChE: ratio of IC50 values, AChE over BuChE
T2 construct: electric eel, and horse serum were used as source of AChE and BuChE, respectively; from tissue; host or cells: horse serum
T2 sequence (P81908 whole entry): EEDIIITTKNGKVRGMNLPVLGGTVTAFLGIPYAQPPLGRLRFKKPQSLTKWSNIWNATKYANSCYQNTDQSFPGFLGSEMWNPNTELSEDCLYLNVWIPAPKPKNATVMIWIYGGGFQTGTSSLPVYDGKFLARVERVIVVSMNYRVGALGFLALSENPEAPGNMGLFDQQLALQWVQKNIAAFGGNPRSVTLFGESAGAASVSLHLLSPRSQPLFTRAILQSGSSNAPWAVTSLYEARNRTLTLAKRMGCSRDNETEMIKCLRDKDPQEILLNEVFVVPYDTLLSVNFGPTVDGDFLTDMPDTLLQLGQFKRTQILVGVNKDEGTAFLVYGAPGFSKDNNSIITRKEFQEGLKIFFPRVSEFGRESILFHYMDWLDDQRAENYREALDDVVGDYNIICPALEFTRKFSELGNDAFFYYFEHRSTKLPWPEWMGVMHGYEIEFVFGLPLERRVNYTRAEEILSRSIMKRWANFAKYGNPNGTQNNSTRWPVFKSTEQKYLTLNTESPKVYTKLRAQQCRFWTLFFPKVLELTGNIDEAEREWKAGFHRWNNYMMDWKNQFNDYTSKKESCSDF
Description: as §1, §2

[1] = horse serum BuChE, Ellman's method, SEM of three experiments, read-out: BuChE IC50 (μM) ± SEM

Row | SMILES | IC50 (AChE) [µM] | Selectivity for AChE (AChE) | IC50 (BuChE; [1]) [µM] | Selectivity for BuChE (BuChE) | fold stronger AChE inhibition than the standard neostigmine (AChE) | BuChE inhibition, in words (BuChE) | fold more potent against BuChE than neostigmine (BuChE; relative to neostigmine) | AChE inhibition, in words (AChE) | IC50 (BuChE) [µM]
1 | C/C(=N\Nc1nc(-c2cc3ccccc3oc2=O)cs1)c1ccccc1 [Compound 6a] | 16.9 ± 0.32 | 1.93 | 32.7 ± 2.08 | 0.51 | – | – | – | – | –
2 | CC(=NNc1nc(-c2cc3ccccc3oc2=O)cs1)c1cccc(N)c1 [Compound 6b] | 0.87 ± 0.09 | 35.8 | 31.22 ± 0.17 | 0.027 | ~ 32 fold | – | – | – | –
3 | C/C(=N\Nc1nc(-c2cc3ccccc3oc2=O)cs1)c1ccccc1Br [Compound 6c] | 21.2 ± 0.23 | 0.91 | 19.3 ± 1.42 | 1.09 | – | – | – | – | –
4 | C/C(=N\Nc1nc(-c2cc3ccccc3oc2=O)cs1)c1cccc(Br)c1 [Compound 6d] | 30.1 ± 1.73 | 0.50 | 15.2 ± 0.53 | 1.98 | – | moderate inhibitors | – | – | –
5 | C/C(=N\Nc1nc(-c2cc3ccccc3oc2=O)cs1)c1ccc(Br)cc1 [Compound 6e] | 33.42 ± 0.18 | 1.47 | 49.12 ± 0.12 | 0.68 | – | – | – | – | –
6 | C/C(=N\Nc1nc(-c2cc3ccccc3oc2=O)cs1)c1ccccc1F [Compound 6f] | 23.1 ± 0.32 | 1.39 | 32.1 ± 1.21 | 0.71 | – | – | – | – | –
7 | C/C(=N\Nc1nc(-c2cc3ccccc3oc2=O)cs1)c1ccc(F)cc1 [Compound 6g] | 36.34 ± 0.18 | 0.77 | 28.01 ± 0.21 | 1.29 | – | – | – | – | –
8 | COc1ccc(C(C)=NNc2nc(-c3cc4ccccc4oc3=O)cs2)cc1 [Compound 6h] | 1.08 ± 0.84 | 17.8 | 19.32 ± 0.11 | 0.055 | 26 fold | moderate inhibitors | – | – | –
9 | COc1ccc(/C(C)=N/Nc2nc(-c3cc4ccccc4oc3=O)cs2)cc1F [Compound 6i] | 2.34 ± 1.43 | 9.44 | 22.1 ± 1.08 | 0.105 | – | – | – | – | –
10 | COc1ccc(/C(C)=N/Nc2nc(-c3cc4ccccc4oc3=O)cs2)c(O)c1 [Compound 6j] | 9.05 ± 0.23 | 1.22 | 11 ± 3.37 | 0.81 | – | – | – | – | –
11 | COc1cc(C(C)=NNc2nc(-c3cc4ccccc4oc3=O)cs2)ccc1O [Compound 6k] | 5.86 ± 0.15 | 3.29 | 19.1 ± 1.32 | 0.303 | – | – | – | – | –
12 | COc1ccc(/C(C)=N/Nc2nc(-c3cc4ccccc4oc3=O)cs2)cc1I [Compound 6l] | 13.8 ± 1.58 | 2.32 | 32.1 ± 1.08 | 0.42 | – | – | – | – | –
13 | C/C(=N\Nc1nc(-c2cc3ccccc3oc2=O)cs1)c1ccc(Cl)cc1N [Compound 6m] | 22.74 ± 0.16 | 1.63 | 37.2 ± 0.55 | 0.61 | – | – | – | – | –
14 | O=c1oc2ccccc2cc1-c1csc(NN=C(c2ccccc2)c2ccccc2)n1 [Compound 6n] | 11.2 ± 0.17 | 1.94 | 21.6 ± 3.09 | 0.51 | – | – | – | – | –
15 | C/C(=N\Nc1nc(-c2cc3ccccc3oc2=O)cs1)c1cc2ccccc2oc1=O [Compound 6o] | 10.1 ± 1.12 | 2.28 | 23.2 ± 0.29 | 0.43 | – | – | – | – | –
16 | CNCn1nc(-c2cc3ccccc3oc2=O)oc1=S [Compound 11a] | 6.07 ± 0.23 | 0.056 | 0.341 ± 0.06 | 17.8 | – | – | – | – | –
17 | CCCCNCn1nc(-c2cc3ccccc3oc2=O)oc1=S [Compound 11b] | 9.41 ± 0.55 | 0.081 | 0.77 ± 0.08 | 12.2 | – | – | – | – | –
18 | Cc1ccc(NCn2nc(-c3cc4ccccc4oc3=O)oc2=S)cc1 [Compound 11c] | 23.8 ± 0.94 | 0.33 | 8.01 ± 3.58 | 2.97 | – | – | – | – | –
19 | O=c1oc2ccccc2cc1-c1nn(CNc2ccccc2Cl)c(=S)o1 [Compound 11d] | 16.6 ± 2.72 | 0.20 | 3.48 ± 1.58 | 4.77 | – | – | – | – | –
20 | O=c1oc2ccccc2cc1-c1nn(CNc2cccc(Cl)c2)c(=S)o1 [Compound 11e] | 12.4 ± 0.08 | 0.012 | 0.15 ± 0.09 | 82.6 | – | – | about 107 fold | – | –
21 | O=c1oc2ccccc2cc1-c1nn(CNc2ccc(Cl)cc2)c(=S)o1 [Compound 11f] | 18.6 ± 0.32 | 0.65 | 12.1 ± 1.08 | 1.53 | – | – | – | – | –
22 | O=c1oc2ccccc2cc1-c1nn(CN(c2ccccc2)c2ccccc2)c(=S)o1 [Compound 11g] | 9.57 ± 1.42 | 0.47 | 4.54 ± 0.54 | 2.10 | – | – | – | moderate inhibitors | –
23 | O=c1oc2ccccc2cc1-c1nn(CN2CCOCC2)c(=S)o1 [Compound 11h] | 12.2 ± 1.67 | 1.09 | 13.5 ± 0.41 | 0.91 | – | – | – | moderate inhibitors | –
24 | CN(C)C(=O)Oc1cccc([N+](C)(C)C)c1 [Neostigmine, reference compound] | 28.2 ± 2.01 | 0.57 | – | 1.75 | – | – | – | – | 16.1 ± 1.13
